From patent US20210002242A1, “DIACYLGLYCEROL LACTONE COMPOUND, PREPARATION METHOD THEREFOR, AND IMMUNOSTIMULATOR CONTAINING SAME AS ACTIVE INGREDIENT” (priority 2018, published 2021)

How the values were obtained:
CXCL8 (IL-8) = test: Increase in expression of CXCL8 (IL-8) in THP-1 cells, human IL-8 ELISA of culture supernatant; assay type: cell-based; conditions: for CXCL8 [IL-8] concentration (pg/μl, average ± deviation): THP-1 cells, 24 hours, supernatant
Protocol: In RPMI (Hyclone, Thermo Scientific) medium to which 10% Fetal Bovine Serum was added, THP-1 cells, a human macrophage family, were suspended at a concentration of 1×10^5 cells/ml, and culture was conducted in a 5% CO2 humidified incubator at 37° C. The cultured THP-1 cells were inoculated into a 12 well plate by 1×10^6 cells/ml and stabilized for 30 minutes. Then, the culture solution was treated with a diacylglycerol lactone compound of the type shown in Table 2 below for 1 hour and then was treated with Gemcitabine (2 μg/ml) of a cell stimulator, and subsequent further incubation was conducted for 24 hours. Thereafter 1.5 ml of the culture supernatant was collected for each well and centrifuged (at 3000 rpm, 5 minutes) to recover the supernatant. The CXCL8 (IL-8) level in the recovered supernatant was measured according to the manual provided by the human IL-8 ELISA set (BD Biosciences). The day before ELISA was carried out, the IL-8 capture antibody was diluted in phosphate buffered saline, coated on a microwell, and then stored at 4° C. overnight. Each well was washed three times with a washing buffer solution and then blocked with 2% Bovine Serum Albumin (BSA) for 1 hour at room temperature. After washing with washing buffer solution three times, 100 μl of sample was dispensed into each well and left at room temperature for 2 hours. Detection antibody which was washed 3 times with washing buffer and diluted was dispensed into each well and allowed to react at room temperature for 1 hour and left at room temperature for 1 hour. Thereafter, the secondary HRP conjugated antibody was reacted at room temperature for 30 minutes, washed three times with a washing buffer, and treated with 50 μl of stop solution for each well, and then the optical density was measured at 450 nm with an ELISA microplate leader.

RAW264.7 cells = test: Cytotoxicity assessment, cell viability by EZ-Cytox (WST), OD 450 nm; assay type: cell-based, mouse; conditions: 100 μg/ml, 24 hours
Protocol: In DMEM (Dulbecco Modified Eagle Medium) medium with 10% Fetal Bovine Serum added, RAW264.7 cells, which are cells of the mouse macrophage family, were suspended at a concentration of 1×10^5 cells/ml, and then were inoculated into 96 well plates by 100 μl, and culture was conducted for 15 hours. […] According to the EZ-CYTOX (Daeillab_EZ-1000) manual for measuring the amount of living cells using WST, 10 μl of EZ-Cytox was added to each well and reacted for up to 2 hours from 30 minutes, and then an optical density (OD) at 450 nm was measured.

[1] = compound 100 μg/ml for 1 hour, then Gemcitabine 2 μg/ml

Row | SMILES | CXCL8 [IL-8] concentration (pg/μl, average ± deviation) (CXCL8 (IL-8); [1]) [pg/µL] | RAW264.7 cell viability (RAW264.7 cells) [%] | secretion of CXCL8 (IL-8) chemokine, increase compared to the negative control group (CXCL8 (IL-8); THP-1 cells treated with Gemcitabine) | CXCL8 [IL-8] concentration (pg/μl, average ± deviation) (CXCL8 (IL-8); Gemcitabine 2 μg/ml alone) [pg/µL]
1 | CCCCCC=CCC=CCCCCCCCC(=O)OCC1(COC(=O)C(C)CC)CCC(=O)O1 (mixture of isomers) [EC-A126] | 352.96 ± 0.45 |  |  | 
2 | CCCCC/C=C\C/C=C\CCCCCCCC(=O)OCC1(COC(=O)CC)CCC(=O)O1 (racemic) [EC-A115] | 1202.80 ± 38.09 |  |  | 
3 | CCCCC/C=C\C/C=C\CCCCCCCC(=O)OCC1(COC(=O)CCC)CCC(=O)O1 (racemic) [EC-A116] | 865.54 ± 12.31 | 141.09 ± 5.01 |  | 
4 | CCCCC/C=C\C/C=C\CCCCCCCC(=O)OCC1(COC(=O)CCCC)CCC(=O)O1 (racemic) [EC-A117] | 568.12 ± 8.21 |  |  | 
5 | CCCCC/C=C\C/C=C\CCCCCCCC(=O)OCC1(COC(=O)CCCCC)CCC(=O)O1 (racemic) [EC-A118] | 622.16 ± 6.61 |  |  | 
6 | CCCCC/C=C\C/C=C\CCCCCCCC(=O)OCC1(COC(=O)CCCCCC)CCC(=O)O1 (racemic) [EC-A119] | 343.61 ± 7.75 |  |  | 
7 | CCCCC/C=C\C/C=C\CCCCCCCC(=O)OCC1(COC(=O)CCCCCCCC)CCC(=O)O1 (racemic) [EC-A120] | 237.80 ± 3.64 |  |  | 
8 | CCCCC/C=C\C/C=C\CCCCCCCC(=O)OCC1(COC(=O)CCCCCCCCCCC)CCC(=O)O1 (racemic) [EC-A121] | 215.38 ± 4.33 | 114.25 ± 33.11 |  | 
9 | CCCCC/C=C\C/C=C\CCCCCCCC(=O)OCC1(COC(=O)CCCCCCCCCCCCC)CCC(=O)O1 (racemic) [EC-A122] | 190.06 ± 4.56 | 105.48 ± 3.92 |  | 
10 | CCCCC/C=C\C/C=C\CCCCCCCC(=O)OCC1(COC(=O)C(C)C)CCC(=O)O1 (racemic) [EC-A124] | 663.45 ± 2.96 |  |  | 
11 | CCCCC/C=C\C/C=C\CCCCCCCC(=O)OCC1(COC(=O)C(C)(C)C)CCC(=O)O1 (racemic) [EC-A125] | 252 ± 11.86 |  |  | 
12 | CCCCC/C=C\C/C=C\CCCCCCCC(=O)OCC1(COC(=O)C2CC2)CCC(=O)O1 (racemic) [EC-A127] | 532.32 ± 1.82 |  |  | 
13 | CCCCC/C=C\C/C=C\CCCCCCCC(=O)OCC1(COC(=O)C2CCCCC2)CCC(=O)O1 (racemic) [EC-A128] | 351.03 ± 7.75 |  |  | 
14 | CCCCCCCCCCCCCCCC(=O)OCC1(COC(=O)C(C)C)CCC(=O)O1 (racemic) [EC-A131] | 1256.19 ± 15.96 | 100.25 ± 14.78 |  | 
15 | CCCCCCCCCCCCCCCC(=O)OCC1(COC(=O)C(C)(C)C)CCC(=O)O1 (stereo not shown) [EC-A132] | 921.35 ± 52.46 | 96.58 ± 5.01 |  | 
16 | CCCCCCCCCCCCCCCC(=O)OCC1(COC(=O)C(C)CC)CCC(=O)O1 (stereo not shown) [EC-A133] | 1176.67 ± 29.42 | 114.45 ± 3.46 |  | 
17 | CCCCCCCCCCCCCCCC(=O)OCC1(COC(=O)C2CC2)CCC(=O)O1 (stereo not shown) [EC-A134] | 1266.03 ± 2.05 | 110.06 ± 4.19 |  | 
18 | CCCCCCCCCCCCCCCC(=O)OCC1(COC(=O)C2CCCCC2)CCC(=O)O1 (stereo not shown) [EC-A135] | 310.87 ± 14.37 |  |  | 
19 | CCCCCCCCCCCCCCCC(=O)OCC1(COC(=O)CCCCCCCCCCC)CCC(=O)O1 (stereo not shown) [EC-A136] | 138.93 ± 2.96 | 95.54 ± 3.01 |  | 
20 | CCCCCCCCCCCCCCCC(=O)OCC1(COC(=O)CCCCCCCCCCCCC)CCC(=O)O1 (stereo not shown) [EC-A137] | 133.12 ± 8.43 | 93.87 ± 8.85 |  | 
21 | Nc1ccn([C@@H]2O[C@H](CO)[C@@H](O)C2(F)F)c(=O)n1 [Gemcitabine, reference compound] |  |  | about five | 101.83 ± 1.59
